From PMC7772889, “Integrating biokinetics and in vitro studies to evaluate developmental neurotoxicity induced by chlorpyrifos in human iPSC-derived neural stem cells undergoing differentiation towards neuronal and glial cells” (Reproductive Toxicology (Elmsford, N.y.), 2020) come the findings set out here.

In series [1] the test system is hiPSC-derived NSCs undergoing differentiation towards neurons and astrocytes. Briefly: In vitro biokinetics of CPF and metabolites in medium, cells and plastic (HPLC-UV). The method, then: The nominal concentration causing 5 % decrease of viability (IC5) was previously identified, extrapolating a dose response curves obtained with six CPF nominal concentrations (0.49, 1.95, 7.81, 31.25, 125, and 500 μM) vs solvent control (0.1 % DMSO) after 14-day treatment by means of resazurin test (CellTiter-Blue® Reagent).
CPF stock solutions were prepared in DMSO and stored in glass at −20 °C until the beginning of each experiment. Freshly prepared treatment solutions were obtained after the dilution of stock solutions in a ratio of […] in serum-free culture medium, keeping DMSO concentration at 0.1 %. Aliquots of the stock and daily treatment solutions (considered as the starting solutions) were stored at −80 °C until HPLC analysis.
Cells (about 21,000 cells/cm^2), seeded on 6 well PDL- and reduced growth factor Matrigel coated plates, were treated during the differentiation process, starting from day 7 of differentiation up to day 21, with treatment/medium refreshed twice a week (Fig. 2). Exposure to CPF of cells or pre-coated wells (without cells) was initiated by adding 2 mL per well of the corresponding treatment solutions or the vehicle (control wells). Four biological replicates were carried out.
A first set of experiments was used to fine tune the experimental conditions, including time points and exposure conditions, taking into account possible metabolism, bioaccumulation and/or physical sequestration processes. All the fractions (i.e., medium, cells, plastic and matrix-bound fractions) were collected, at the first and last day of treatment, at different time points (i.e., 1, 3, 6, 24 h) selected on the basis of the intrinsic features of the compound and the cellular model. At each time point, the medium was transferred into amber glass vials and stored at −80 °C until HPLC analysis. Cells were washed twice with PBS (2 mL/well); to avoid dehydration of the cells, an aliquot of PBS was kept in each well. PBS was then removed, cells were scraped from the wells in 250 μL MeOH, additional 100 μL MeOH were added for washing and all the content was transferred into amber glass vials. The same procedure was applied also to the wells used for measuring matrix-bound material (without cells). Cells were then sonicated until they were fully homogenized (about 15 min). All fractions, including DMSO from control wells and MeOH used to measure possible plastic binding, were stored at −80 °C until HPLC analysis. Four biological replicates were carried out.
All samples from kinetic experiments were analysed using high-performance liquid chromatography (HPLC), as previously described, to quantify CPF and its metabolites. Prior to analysis, one volume of the collected medium samples was mixed with three volumes of MeOH. All the mixtures, including cell and matrix-bound samples, were vortexed for 30 s and then centrifuged (Eppendorf 5417R; 4 °C, 2500 rpm) for 10 min. Preliminary assays were conducted to evaluate CPF and its metabolite recovery after the solvent extraction procedure from each type of sample. […] Plastic-bound fraction was injected as such.
The HPLC system included a PerkinElmer Series 200 analytical pump, a Restek™ Pinnacle ODS Amine C18 column, a PerkinElmer LC 235 Diode Array Detector and the PerkinElmer Totalchrom™ 3.1.2 software for data acquisition and evaluation. For analysing CPF, CPFO and TCP, a gradient elution was applied at a flow rate of 1.0 mL/min, starting at 80:20 % methanol /buffer (Tris /HCl 50 mM EDTA 1 mM pH 7.4) and reaching after 4 min a percentage of 70:30 (v/v), respectively, maintained for 16 min. Then, the gradient returned to the initial concentration before the next sample was injected.

Series [2] has as its system hiPSC-derived NSCs undergoing differentiation. As to the kind of experiment: Proportion of neurons (β-III-Tubulin+) and astrocytes (GFAP+) by immunocytochemistry and HCI. The series is classed as cell-based, human. Conditions: 14 days. On the procedure:
After 14 days of treatment with CPF at the nominal concentrations of 18.45, 21.21, 24.39, 28.05, 32.26, and 37.10 μM (37.10 μM equal to IC20), obtained considering a 1-to-1.15 dilution factor, cells were fixed with 4 % formaldehyde for 10 min and washed three times in PBS 1 × . After 15 min permeabilization with PBS 1X containing 0.1 % Triton-X-100 and 3,5 % bovine serum albumin (BSA), cells were further incubated with 3,5 % BSA and 1X PBS (blocking solution) for 15 min, to prevent nonspecific binding of antibodies, and then incubated at 4 °C overnight with primary antibodies in blocking solution. […] Neurite outgrowth and BDNF protein levels were assessed by staining the cells with an antibody specific for β-III-tubulin (mouse, 1:500, ThermoFisher), and one for BDNF (rabbit, 1:70, ThermoFisher). […] Mean fluorescence intensity and the relative percentages of immunocytochemically-defined cell types were quantified using the ArrayScan™ XTI High Content Platform (Cellomics) (ThermoFisher) and the ArrayScan algorithm 'Neuronal Profiling V4.1', as previously described. […] Other masks were applied to identify the neurites, their branch points, and the fluorescence intensity levels of SYP and PSD95 puncta, or BDNF protein. […]

A short description of series [3]: Chemical solubility and stability / recovery from medium (HPLC-UV). The series is classed as physicochemical. On the procedure:
The solubility and stability of CPF in water, medium and DMSO (the vehicle used to prepare stock solutions), were checked in preliminary assays, mimicking the actual experimental conditions: maximum concentration used; 37 °C; controlled pH; different incubation times. Samples in amber glass vials with screw caps were stored at −80 °C until the analysis for quantifying CPF by means of HPLC-UV was carried out.
Plastic-bound fraction was injected as such.

Turning to `CCOP(=S)(OCC)Oc1nc(Cl)c(Cl)cc1Cl` [CPF, Chlorpyrifos], in series [1] (first day of treatment, 1 h until 24 h, 21 μM nominal), the “Intracellular levels of CPF” value is reported as 2.5–4.7 nmol/well. The “CPF in the medium as % of the initial CPF amount” value in series [1] (first day of treatment, 24 h) is recorded as “around 41%”. Besides, the “CPF in the medium” value in series [1] (first day of treatment, 24 h, 21 μM nominal) is 18.0 ± 6.9 nmol/well. Besides, the “Mass balance (% of the applied CPF amount)” value in series [1] (first day of treatment, first three time points (1, 3 and 6 h)) is given as “around 95%”. Also, in series [1] (nominal concentration 21 μM (IC5)), the “Actual concentration in the medium at the beginning of the experiment (treatment solution)” value was found to be 24.5 ± 5.6 µM. Besides, in series [1] (p < 0.01), the “Amount of CPF in the cell compartment, last day compared to first day of treatment” value is “doubled”. In series [1] (repeated exposure, within the first 6 h), the Mass balance was 110 to 120%. The “increase of neuronal cell percentage (β-III-Tubulin+)” value in series [2] (all tested concentrations) is listed as 10–15%. In addition, the “increase of GFAP+ cell percentage vs solvent control” value in series [2] (concentration dependent) was 2- to 2.8 fold. Further, in series [3] (maximum concentration, 37 °C, controlled pH, different incubation times), the “Solubility and stability in aqueous medium solutions and DMSO” value is “soluble and chemically stable”. In series [3] (serum-free medium), the Recovery from medium came to 108.2 ± 18.6%.
